Here are results for 87 compounds from a melting point compilation (Tetko et al.; mined from patent text by program, amines drawn as free bases though some values may be those of a salt).

One may read the melting point as the temperature, or range, at which the solid turns liquid. `CSC(=O)N1c2ccccc2C(=O)N(C(C)C)S1(=O)=O` yielded a melting point of 125 to 127 °C.

Compound `CN1CCN(CCCNc2nc(N)c(C(=O)c3ccc(Cl)s3)s2)CC1` displayed a melting point of 184 °C.

Consider `Cn1nc(-c2c(F)cccc2Cl)nc1-c1ccc(COc2ncc(C(F)(F)F)cc2Cl)c(Cl)c1`, for which the melting point was in the range of 47 to 49 °C.

As for `COc1ccc2[nH]c(SC/C=C(\C)CCC=C(C)C)nc2c1`, the melting point lay within 113 to 116 °C.

For the compound `CC(O)=C(C#N)C(=O)Nc1ccc(OC(F)(F)F)c(Br)c1`, the melting point is 178 to 179 °C.

Consider `CNc1ccc(C#CCCN2CC=C(c3ccccc3)CC2)nc1`, for which the melting point lay in the range of 164 to 166 °C.

In turn, `COc1nc(N)nc2c1ncn2C1O[C@H](CO)C[C@@]1(C)O` (some centres not stated) gave a melting point of 140 to 142 °C.

For the compound `CCCn1c(=O)c2c(nc(C=Cc3cc(OC)c(OC)cc3S(=O)(=O)Nc3ccccc3)n2C)n(CCC)c1=O`, the melting point was in the range of 247 to 249 °C.

Consider `COc1ccc(CNc2nc(OCc3ccccn3)ncc2C(=O)c2cc(OC)c(OC)c(OC)c2)cc1NC(C)=O`, for which the melting point was 194 to 196 °C.

`CC(C)c1nn(-c2ccc(C(F)(F)F)cn2)cc1CCO` registered a melting point of 74 to 75 °C.

In turn, `N=C(N)c1ccc(C(=O)N[C@@H](Cc2ccc(O)cc2)C(=O)N2CCC(OCC(=O)O)CC2)cc1` had a melting point of 88 to 90 °C.

Regarding `CC(CCc1cc2cccnc2n(-c2cccc(N)c2)c1=O)c1ccncc1` (configuration not stated), the melting point was 83 to 91 °C.

Turning to `CCOC(=O)c1ccc(C(=O)Nc2ccc3c(c2)CCC(C)(C)C(=O)N3C)cc1`, the melting point lay in the range of 183 to 184 °C.

As to `CCCn1cnc2c1c(=O)n(CCCCCCOc1ccc(OC)cc1)c(=O)n2C`, the melting point was 56 to 67 °C.

The compound `CC1(C)OC(=O)Nc2ccc(-c3cc(F)cc(C(F)(F)F)c3)cc21` displayed a melting point of 207 to 208 °C.

`COC(=O)[C@H](Cc1ccccc1)NC(=O)c1ccc([N+](=O)[O-])cc1` displayed a melting point of 115 to 116 °C.

In turn, `CCOC(=O)C(Cc1ccc(C)c(C)c1)(NC(C)=O)C(=O)OCC` returned a melting point of 107 to 109 °C.

For `CCC(=O)NCCC1CCc2ccc3c(c21)NC(=O)CO3` (configuration not stated), the melting point was in the range of 216 to 219 °C.

`N#Cc1ccc(C(=C2CCCCCC2)c2ccc(O)cc2)cc1` gave a melting point of 110 to 111 °C.

`CSc1cccc(NC(=O)NCC(=O)N2[C@@H](C(=O)OC(C)(C)C)C[C@H](C(=O)O)[C@H]2c2ccccc2)c1` (racemic) came in with a melting point of 130 °C.

`CCc1cc(C)cc(CC)c1C1C(=O)CC2(CCOCC2)CC1=O` had a melting point of 139 to 141 °C.

On to `CC(=O)Nc1ccc(S(=O)(=O)NC(=N)c2cnccn2)cc1`, for which the melting point lay within 270 to 274 °C.

Compound `COc1ccc(C(=O)Cn2cc[nH]c2=O)cc1OC1CCCC1` yielded a melting point of 201 °C.

With `COCOc1ccc(-n2c(SCc3ccc(Br)cc3)nc3ccc(Cl)cc32)cc1`, the melting point was in the range of 123 to 124 °C.

For `O=C(CN1C(=O)c2ccccc2C1=O)NNC(=O)c1ncn2c1[C@@H]1CCCN1C(=O)c1sccc1-2`, the melting point was over 260 °C.

For `O=C(O)c1ccc(OC(F)(F)F)cc1Cl`, the melting point lay in the range of 90.6 to 91.2 °C.

For the compound `CCN(CC)Cc1ccc(N=C2NCCN2)c(Cl)c1`, the melting point fell in the range of 113 to 115 °C.

`Cn1cnc(S(=O)(=O)NCCc2ccc(OCC(=O)O)cc2)c1` had a melting point of 203 to 204 °C.

With `O=C(O)c1cc(Cl)c(Oc2ccc(O)cc2)c(Cl)c1`, the melting point lay within 163 to 165 °C.

Consider `COc1cc2nc(N3CCc4c(ncnc4N4CCOCC4)C3)[nH]c(=O)c2cc1OC`, for which the melting point is 288 to 290 °C.

`COc1ccc(CCCc2nnc(-c3ccc4occc4c3)o2)cc1`: the melting point is 116 to 117 °C.

Take `FC(F)(F)c1ccc(-c2cc(C(F)(F)F)n3ncc(-c4ccncc4)c3n2)cc1C(F)(F)F`: the melting point came to 209 °C.

For the compound `ClC1=Nc2ccccc2Sc2ccccc21`, the melting point lay in the range of 93 to 97 °C.

Consider `COC(=O)c1ccc(OCCNC(=O)C2Cc3ccccc3N2S(=O)(=O)c2ccc(-c3ccc(F)cc3)cc2)c(Cl)c1` (configuration not stated), for which the melting point lay in the range of 84 to 90 °C.

In turn, `CCSc1ccc(SCC)c(C#N)n1` returned a melting point of 63 to 64 °C.

For `COc1ccccc1SC(CC(C)C)c1c(O)cc(-c2ccccc2)oc1=O` (configuration not stated), the melting point is 75 to 78 °C.

`NC(=O)C(Nc1cccc2c1C(=O)CO2)c1c(Cl)cccc1Cl` (configuration not stated) showed a melting point of 245 °C.

`O=C(c1c[nH]c2cc(O)ccc12)C1CSC(c2cccnc2)N1` (configuration not stated) displayed a melting point of 203 to 205 °C.

In turn, `COc1c(C2CCN(CCCCNC(=O)c3ccc(-c4ccc(Cl)cc4)nc3)CC2)ccc2c1CCCC2` gave a melting point of 184 to 186 °C.

In the case of `COc1ccc(-c2cc(=O)n(Cc3c(Cl)cc(Cl)cc3Cl)nc2-c2ccc(OC)cc2)cc1`, the melting point lay within 142 to 143 °C.

`C#CCON=Cc1cc(Cl)ccc1O` displayed a melting point of 71 to 73 °C.

With `COc1ccc2c(n1)CC(=O)N2CCCO`, the melting point was in the range of 121 to 122 °C.

For `CC(C)(C)C1=CC(=Cc2ccc(C#N)cc2)C=C(C(C)(C)C)C1=O`, the melting point lay in the range of 147 to 148 °C.

With `Cc1cc2c(c(C(C)(C)C)c1)OC(=O)C2OC(=O)CCc1cc(C(C)(C)C)c(O)c(C(C)(C)C)c1` (configuration not stated), the melting point lay in the range of 151 to 154 °C.

As to `COc1cccc([C@H]2O[C@H](Cc3nc(=O)o[nH]3)C(=O)N(CC(C)(C)C)c3ccc(Cl)cc32)c1OC`, the melting point lay in the range of 130 to 133 °C.

As to `CC(C)c1nc(CCOCc2ccccc2)n(C)c1Sc1cc(Cl)cc(Cl)c1`, the melting point is 101 to 103 °C.

For the compound `CCOP(=O)(Cc1ccc(NC(=O)C2=Cc3cc(C4CCCCC4)ccc3CC2)cc1)OCC`, the melting point was in the range of 137 to 138 °C.

`O=C1C2C=CCCC2C(=O)N1CCO` (configuration not stated): the melting point lay in the range of 48 to 51 °C.

With `CCCCCCN1C(=O)C(=CC(=O)O)SC1=Nc1ccc(Cl)c(Cl)c1`, the melting point lay within 156 to 157 °C.

For the compound `CCCCCCC1c2cc(CBr)ccc2-c2ccc(CBr)cc21`, the melting point was in the range of 143 to 145 °C.

With `C#CCOc1ccc(OCC2OC2(C)C)cc1` (configuration not stated), the melting point is 72 to 73 °C.

For the compound `COCC(=O)Nc1cc(NC(=O)COC)cc(C(=O)OC)c1`, the melting point lay within 140 to 141 °C.

`O=C1Nc2cccc(-c3ccc(O)cc3)c2/C1=C/c1ccc[nH]1`: the melting point is 271 to 273 °C.

Consider `COc1cc2oc(=O)c(CCCl)c(C)c2cc1O`, for which the melting point is 230 to 235 °C.

In the case of `CC(C)Nc1nc(N)nc(-c2ccccc2)c1-c1ccc(=O)n(C(C)C)n1`, the melting point was 234 to 236 °C.

Regarding `CCOCc1nc2c(N)nc3ccccc3c2n1CC1(O)CCN(C(=O)OC(C)(C)C)CC1`, the melting point fell in the range of 195 to 197 °C.

With `c1ccc2c(c1)CCN(Cc1nc3ccccc3[nH]1)C2`, the melting point lay in the range of 184 to 186 °C.

For the compound `Fc1ccc(-n2ccc3cc(-c4nnn[nH]4)ccc32)cc1`, the melting point was in the range of 224 to 225 °C.

On to `COc1c(Cl)cc(C(=O)Nc2ccc(F)cc2)c(Nc2ccccc2)c1Cl`, for which the melting point worked out at 220 °C.

On to `Cc1[nH]c(C(=O)N2CC=CN2)c(C)c1-c1nc2ccc(C(=O)c3ccccc3)cc2[nH]1`, for which the melting point fell in the range of 148 to 150 °C.

Compound `OCC(OC1CCCCO1)c1ccc2sccc2c1` (single isomer, unassigned; (-)) showed a melting point of 62 to 77 °C.

In the case of `COc1ccc(Nc2cc3c(cc2Nc2ccc(OC)cc2)C(=O)NC3=O)cc1`, the melting point was 191 to 193 °C.

In the case of `CCn1c(=O)c(C(=O)NCCOC)c(O)c2ccc(C)nc21`, the melting point lay in the range of 118 to 120 °C.

`COCc1nc2c(OCc3ccccc3)cccc2n1C`: the melting point is 120 to 122 °C.

Consider `CC(=O)Nc1ccc(Cl)c2c1C(=O)C(NC(C)=O)CN2C(C)=O` (configuration not stated), for which the melting point fell in the range of 206 to 210 °C.

As to `O=C(NCc1ccccc1)c1ccnc(-n2cnn(Cc3ccc(F)cc3)c2=O)c1`, the melting point lay within 173 to 175 °C.

For `CC12CCC3C(CCC4=CC(=O)CCC43CO)C1CCC2O` (configuration not stated), the melting point lay in the range of 205 to 207 °C.

In the case of `O=C(NCc1ccccc1)NC(Cc1ccccc1)C(=O)O` (configuration not stated), the melting point was 115 to 117 °C.

Compound `O=C1Nc2cccc(Cl)c2C(=O)N2CCC[C@@H]12` yielded a melting point of 264 to 266 °C.

For `O=C(Cc1ccc(Cl)cc1Cl)Nc1ccccc1`, the melting point amounted to 146 °C.

`CC1(C)NC(=O)N(c2ccc([N+](=O)[O-])c(C(F)(F)F)c2)C1=O` registered a melting point of 149 °C.

Regarding `Cc1ccc(-c2nc(CCCOS(=O)(=O)c3ccc(C)cc3)c(C(F)(F)F)o2)cc1`, the melting point lay within 57 to 58 °C.

In turn, `COc1cc(OC)nc(Oc2cc([N+](=O)[O-])ccc2C(=O)O)n1` came in with a melting point of 93 to 96 °C.

`CC1(C(=O)NCc2cccs2)CC1` returned a melting point of 70 to 71 °C.

Turning to `COC(=O)Cn1cnc(N2CCc3ccccc3CC2)c(C#N)c1=O`, the melting point was 156 to 160 °C.

`N#Cc1ccc(CCl)cn1` gave a melting point of 45 to 47 °C.

As for `CSc1nc(-c2cc(NC(=O)c3ccc(C)c(F)c3)ccc2C)c2c(n1)N(c1c(F)cccc1F)C(=O)NC2`, the melting point lay in the range of 167 to 173 °C.

On to `COCCNC(=O)c1cccc(-c2cccc3cc(Cc4cc(F)cc(C(F)(F)F)c4)sc23)c1`, for which the melting point fell in the range of 106 to 107 °C.

`CN1C(=O)N(C[C@@H]2COC(=O)[C@@H]2CC2CCCC2)C(=O)C1(C)C` (racemic) registered a melting point of 71 to 74 °C.

In turn, `CCCCCCCCCCCCCCCCCCNS(=O)(=O)c1cccc(C(F)(F)F)c1` yielded a melting point of 83 to 85 °C.

As for `OCc1conc1-c1ccc(F)c(Br)c1`, the melting point fell in the range of 93 to 94 °C.

`CCOC(=O)c1nnc(-c2cc3cc(Oc4ccc(S(C)(=O)=O)cc4)cc(OCc4ccccc4)c3[nH]2)s1` had a melting point of 194 to 195 °C.

As to `CC(CCCn1cc(CCO)c(=O)[nH]c1=O)C(=O)O` (configuration not stated), the melting point amounted to 105 °C.

On to `CC(O)c1ccc(Oc2ccc(NC(=O)Nc3cc(C(C)(C)C)on3)cc2)cc1` (configuration not stated), for which the melting point lay within 80 to 85 °C.

The compound `Nc1cc([N+](=O)[O-])ccc1OC(F)(F)F` showed a melting point of 90 to 91 °C.

`COc1cc(C(=O)NS(=O)(=O)c2ccccc2Cl)ccc1Cc1cn(C)c2ccc(CC3CCN(C)C3=O)cc12` (configuration not stated): the melting point was 128 to 135 °C.

On to `CC(=O)NC[C@H]1CN(c2ccc(C3(F)CCNCC3)c(F)c2)C(=O)O1`, for which the melting point lay within 163 to 165 °C.
